Measurements published in US20180038871A1, “DIAGNOSTIC BIOMARKER TO IDENTIFY WOMEN AT RISK FOR PRETERM DELIVERY” (CEDARS-SINAI MEDICAL CENTER, priority 2009, published 2018).
“Also recorded” adds a separate entry of the source.

Test system: Peripheral blood mononuclear cells (PBMC)
Assay: LPS-induced cytokine expression profile in PBMC with or without cortisol pretreatment (Bioplex)
Assay type: cell-based, human
Set-up: key to Cortisol Effect on IFN-g secretion level / LPS Effect on IFN-g secretion level / Cortisol Effect on TNF-a secretion level / Cortisol Effect on GM-CSF secretion level / LPS Effect on GM-CSF secretion level / Cortisol Effect on IL-2 secretion level / LPS Effect on IL-2 secretion level / Cortisol Effect on IL-4 secretion level / Cortisol Effect on IL-10 secretion level: n/c = No Change
Protocol: Peripheral blood mononuclear cells (PBMC) from non-pregnant (at least 5-6 years post-partum) women with history of preterm or full term delivery, in addition to the microbial component lipopolysaccharide (LPS)-induced cytokine expression profile were examined. PBMC were separated from whole blood using Ficoll gradient. The cells were counted and equal numbers of cells were plated in 24 well plates. PBMC were treated with cortisol (50 or 300 ug/ml) or media for 1 hour prior to stimulation with LPS (0, 1, or 100 ug/ml) for 24 hours.
The PBMC were lysed and the supernatant was examined for inflammatory and anti-inflammatory cytokine expression by using Bioplex technology (Bio-rad).
In this study two patients were preterm and four were full term. There were 9 samples per patient (3×3 design) and all samples from each patient were analyzed twice for cytokine concentrations with the exception of one full term subject who only had one analysis of each sample. As a result there are a total of 99 observations for each cytokine measured. The assay simultaneously measured concentrations of 11 inflammatory markers: IL-1ra (IL1-receptor antagonist), IL-2, IL-4, IL-5, IL-8, IL-10, IL-12, IL-13, GM-CSF, IFN-g, and TNF-a.
All raw data was tested via the Kolmogorov-Smirnov test to determine if the data followed a normal distribution. Log-transformations were performed for all data found to have a non-normal distribution prior to further statistical analysis. For each cytokine, a mixed effects model was used to examine all data for significant effects with the outcome variable as the cytokine concentration; the fixed predictor variables as LPS concentration, cortisol concentration, and delivery status (pre- or full-term); and the random effect due to the replicate data points. To test the interaction of the three fixed predictor variables on cytokine concentration, both first and second level interactions ware added to each cytokine model. Post-hoc testing was performed using a Student's t-test.
Using the same mixed model regression, estimated group means and standard errors were calculated. Differences between preterm and full-term pregnancies were considered significant where p <0.10.

[1] = 0 or 300 ug/ml cortisol pretreatment 1 hour, 0 or 1 ug/ml LPS 24 hours, mixed modeling
[2] = 0 or 300 ug/ml cortisol pretreatment 1 hour, 0 or 1 ug/ml LPS 24 hours, mixed modeling, listed as cortisol
[3] = all 99 observations, 300 ug/ml vs 50 ug/ml cortisol
[4] = 0 or 1 ug/ml LPS 24 hours, 0 or 300 ug/ml cortisol pretreatment, mixed modeling

C[C@]12CCC(=O)C=C1CC[C@@H]1[C@@H]2[C@@H](O)C[C@@]2(C)[C@H]1CC[C@]2(O)C(=O)CO [Cortisol, cortisol]
Cortisol Effect on GM-CSF secretion level [1]: n/c, p = .51
Cortisol Effect on IFN-g secretion level [1]: n/c, p = .10
Cortisol Effect on IL-1ra secretion level [1]: decrease, p = .03
Cortisol Effect on IL-2 secretion level [1]: n/c, p = .80
Cortisol Effect on IL-4 secretion level [1]: n/c, p = .26
Cortisol Effect on IL-10 secretion level [1]: n/c, p = .12
Cortisol Effect on IL-13 secretion level [1]: decrease, p = .01
Cortisol Effect on TNF-a secretion level [1]: n/c, p = .41
Cortisol Effect on IL-1ra secretion level [2]: suppress secretion
Cortisol Effect on IL-13 secretion level [2]: suppress secretion
Suppression of IL-1ra level, 300 ug/ml cortisol compared with 50 ug/ml [3]: more significant effect to suppress cytokine levels
Suppression of IL-10 level, 300 ug/ml cortisol compared with 50 ug/ml [3]: more significant effect to suppress cytokine levels
Suppression of IL-13 level, 300 ug/ml cortisol compared with 50 ug/ml [3]: more significant effect to suppress cytokine levels

lipopolysaccharide [LPS]
LPS Effect on GM-CSF secretion level [4]: n/c, p = .19
LPS Effect on IFN-g secretion level [4]: n/c, p = .17
LPS Effect on IL-1ra secretion level [4]: increased secretion; also recorded: increase, p = .09
LPS Effect on IL-2 secretion level [4]: n/c, p = .50
LPS Effect on IL-4 secretion level [4]: increased secretion; also recorded: increase, p = .07
LPS Effect on IL-10 secretion level [4]: increased secretion; also recorded: increase, p = .01
LPS Effect on IL-13 secretion level [4]: increased secretion; also recorded: increase, p = .04
LPS Effect on TNF-a secretion level [4]: increased secretion; also recorded: increase, p = .04
Difference between the effects of 1 ug/ml and 100 ug/ml LPS, all cytokines measured (all 99 observations, 1 ug/ml vs 100 ug/ml LPS): no significant difference
